Results published in patent publication US20110245104A1, “Method for screening the sensitizing properties of chemical compounds” (priority 2010, published 2011).
Entries after “also recorded” stand apart in the source; their conditions may differ. Read-outs that look alike come from different tables or passages of the source.

How the values were obtained:
[1] = tested on: anti-nuclear antibodies (ANA); experiment: Anti-nuclear antibodies (ANA) in sera of mice topically exposed to haptens; format: in vivo; settings: topical exposure
[2] = tested on: Normal human epidermal keratinocytes (HEKn); experiment: Keratinocyte blebbing response, light microscopy (Example 1)
Protocol: Normal human epidermal keratinocytes (HEKn, Cascade Biologics, Portland, Oreg., USA) were maintained in phenol red-free EpiLife keratinocyte medium (Cascade Biologics) supplemented with 60 μM CaCl2, the antibiotics gentamicin/amphotericin and 1% (v/v) human keratinocyte growth supplement (HKGS; Cascade Biologics). Alternatively, Medium 154 containing 200 μM CaCl2 supplemented with HKGS (1% (v/v), without antibiotics is used. Cells were grown at 37° C. in a humidified 5% CO2 incubator. Final concentrations of the components in the supplemented medium were: bovine pituitary extract, 0.2% v/v; bovine insulin, […]; hydrocortisone, […]; bovine transferrin, […]; human epidermal growth factor, 0.2 ng/mL; optional: gentamicin, 10 μg/mL and amphotericin B, 0.25 μg/mL. All reagents were obtained from Cascade Biologics, Portland, Oreg., USA. The keratinocytes were used for experiments in the fifth or sixth passage.
HEKn cells in passage 6 were split and resuspended to 18500 cells/ml in medium 154 (Cascade Biologics) supplemented with 1% (v/v) human keratinocyte growth supplement (HKGS; Cascade Biologics, no antibiotics added). Cell suspension (0.5 ml) was added to each well in a 24 well plate (Nunc Multidishes Nunclon, Sigma Aldrich, Stockholm, Sweden) and incubated at 37° C., 5% CO2. The medium was replaced every second day by fresh 154 medium supplemented with HKGS (no antibiotics added) until cells had grown confluent.
The compounds to be tested (for example: mBBr, SDS, CDNB, nonanoic acid, HCA, oxazolone were purchased from Sigma Aldrich, qBBr, dBBr, glyoxal, and formaldehyde were obtained from Merck-Schuchardt, Darmstadt, Germany) were diluted in DMSO (Sigma Aldrich, Stockholm, Sweden) to final concentrations of 50 mM, 5 mM and 0.5 mM. These stock solutions were prepared fresh each time the experiment was performed. Alternatively, the mixture, solution, formulation, etc. can be used after dilution/dissolving in DMSO (to test the combined effects of the compounds in that particular preparation).
1) Cell preparation just prior to starting the experiment: the medium in the cell culture plate was replaced by 250 μl fresh Medium 154 (Cascade Biologics) supplemented with HKGS (1% (v/v) human keratinocyte growth supplement (HKGS; Cascade Biologics)) and the cells are kept at 37° C., 5% CO2.
2) Preparation of test compound in medium: 245 μl Medium 154 was added to 0.5 ml microtubes and preheated to 37° C. (waterbath). 5 μl of stock solution of compound was added to the microtubes containing preheated medium. These solutions were then added immediately to the cells in the 24-well plate.
3) The solutions in the microtubes (i.e. 250 μl medium+test compound) were added to each plate. The final concentration of each compound in the test was thus 0.5 mM, 0.05 mM, and 0.005 mM. The plate containing cells and test compounds was incubated for 24 hours at 37° C., 5% CO2.
4A) Each well was examined with a light microscope to determine the blebbing response (a Nikon TE300 inverted microscope) coupled to a digital camera.

[3] = tested on: serum amyloid P component (SAP); experiment: Serum amyloid P component (SAP) in sera of mice exposed to sensitizers; format: in vivo; settings: sera of mice exposed to sensitizer
[4] = tested on: K5 and K14 in blebs from human keratinocytes; experiment: Keratin content of blebs released from keratinocytes (Western blot); format: cell-based; settings: blebs from hapten-treated keratinocytes
Protocol: The quantification of the blebbing response was also made by observing: the amount of released protein (e.g. K5 and K14) through SDS-PAGE and western blots. Blebs were collected and lysed as described in example 4. SDS-PAGE: The samples were diluted (Blebs: 46 μg, 30 μl for blotting and 29.2 μg, 40 μl for SDS-PAGE. K14 and K5: 0.2 μg, 5 μl) with XT Sample Buffer 4X (BioRad, Hercules, Calif., USA) and milli-Q water. 1 μl DTT (2M) was added to each sample followed by heating at 96° C. for 2 minutes before application on the gel. Electrophoresis program: 200V, 400 mA, 50 W, 50 min. MOPS Running Buffer. The gels were fixed, scanned for fluorescence (excitation 480 nm, emission 530 nm) and coomassie stained (Bio-Safe™ Coomassie, BioRad, Hercules, Calif., USA). The gels are then used for quantitative measurement of proteins. Western Blot: Unfixed gels were blotted onto polyvinyldifluoride membranes (PVDF Ready-gel Blotting Sandwiches, 7×8.5 cm, BioRad, Hercules, Calif., USA). Blotting program: 70 V, 400 mA, 50 W, 30 min. Transfer buffer. Novex XCell II™ Blot Module (E19051, Novex, San Diego, Calif., USA). […]
The blebs in the supernatant was lysed with 4× freeze-thaw cycles using ethanol, dry ice and a 37° C. water bath. […] Total protein concentration was determined with Pierce BCA Protein Assay. […]

cysteine 54 (C54) of K5 = target: T1, cysteine 54 (C54) of K5 (Homo sapiens, UniProt P13647); experiment: Haptenation site by LTQ-FT-ICR mass spectrometry; settings: full-thickness human skin and living human keratinocytes
T1 construct: endogenous in cells; host or cells: intact full-thickness human skin; living (primary) human keratinocytes
T1 sequence (P13647 1-590): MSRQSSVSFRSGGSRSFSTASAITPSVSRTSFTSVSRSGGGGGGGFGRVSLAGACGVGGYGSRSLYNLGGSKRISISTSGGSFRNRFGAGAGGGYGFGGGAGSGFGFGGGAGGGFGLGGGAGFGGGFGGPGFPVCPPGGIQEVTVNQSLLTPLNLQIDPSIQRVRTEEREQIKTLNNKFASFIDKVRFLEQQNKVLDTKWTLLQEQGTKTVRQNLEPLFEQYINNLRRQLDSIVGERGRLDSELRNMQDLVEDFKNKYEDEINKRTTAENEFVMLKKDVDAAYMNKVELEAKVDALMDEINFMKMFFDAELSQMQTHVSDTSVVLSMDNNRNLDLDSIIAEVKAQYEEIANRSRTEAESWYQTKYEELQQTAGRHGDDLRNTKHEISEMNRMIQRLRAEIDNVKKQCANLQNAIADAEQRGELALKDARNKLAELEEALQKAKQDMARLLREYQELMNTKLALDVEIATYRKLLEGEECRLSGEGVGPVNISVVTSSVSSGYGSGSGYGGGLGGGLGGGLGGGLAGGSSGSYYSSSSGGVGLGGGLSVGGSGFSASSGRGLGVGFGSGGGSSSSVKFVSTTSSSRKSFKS
T1 sequence (P02533 1-472 partner): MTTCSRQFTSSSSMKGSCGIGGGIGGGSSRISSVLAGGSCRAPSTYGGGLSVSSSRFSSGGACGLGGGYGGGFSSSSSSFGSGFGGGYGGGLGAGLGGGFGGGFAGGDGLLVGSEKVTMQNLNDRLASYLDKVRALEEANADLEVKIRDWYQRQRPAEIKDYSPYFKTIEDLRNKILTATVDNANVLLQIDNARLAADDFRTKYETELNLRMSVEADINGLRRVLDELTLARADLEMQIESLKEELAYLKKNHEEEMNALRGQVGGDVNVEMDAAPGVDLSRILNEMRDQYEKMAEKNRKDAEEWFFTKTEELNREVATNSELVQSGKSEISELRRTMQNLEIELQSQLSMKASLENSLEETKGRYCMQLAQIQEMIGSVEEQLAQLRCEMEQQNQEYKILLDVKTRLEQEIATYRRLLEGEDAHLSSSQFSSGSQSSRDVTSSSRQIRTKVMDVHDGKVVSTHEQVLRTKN
Source text: The second step is that the molecules enter the basal cells. Since the extracellular environment is oxidizing, extracellular cysteines are mostly oxidized to disulfides. However, it is in the reduced, intracellular environment that the haptens find reduced thiols to react with. Once inside the cells the compounds will react with available (i.e. not sterically hindered), reduced cysteines (thiol groups). […] Furthermore, it was identified that one of the cysteines that the haptens react with is cysteine 54 (C54) of K5. […] One of the reasons for intense reaction at C54 is presumably its high effective concentration just inside the cell membrane. It is vital in the life of an organism to fail-safe its epithelial integrity, and the bundling of the KIFs ensures a high effective local concentration of the peptide stretch containing C54, ensuring strong welding of the cell to its surroundings. Amino acids nearby in the primary sequence are consequently also located within physical reach of an incoming compound in similarly high effective concentrations. Looking at blebbing brought on by amine- and arginine-reactive compounds from this angle, the residues K71 and R72 are the closest candidates in the primary sequence.

human skin excerpts = experiment: Labeling of human skin excerpts by caged haptens
Source text: The first step is that the molecules come into contact with the skin (the stratum corneum). Many of the reactive molecules react in the stratum corneum, something that can be seen in experiments with human skin excerpts and the caged (mBBr and dBBr) haptens. However, a significant proportion of the molecules penetrate further down to the suprabasal layers of the epidermis but also the follicular pathway is of importance for bringing xenobiotics into the skin. It is likely that the penetration is due both to the acidic pH of the stratum corneum (the molecules react more slowly when the pH is low), but also because many of the available groups have reacted. In the suprabasal layers, the haptens have a hard time penetrating the cells, as the cornification of the cells creates a thick, relatively impermeable envelope around the suprabasal cells. Consequently, the haptens penetrate down to the basal layer. Here, the cell membrane is much thinner and more fluidic and the molecules can thus enter the basal cells.

[5] = HEKn cells, tested at 0.5, 0.05 and 0.005 mM
[6] = HEKn cells, time 24 h and concentration 0.5 mM, visual inspection, blind
[7] = compound added to human keratinocytes

SMILES	Level of anti-nuclear antibodies (ANA) in sera [1]	Concentration at which the cells produced blebs after 24 hours [2, 5] [µM]	Amount of blebs [2, 6]	Blebbing response of human keratinocytes (induced or not) [2, 7]	Level of serum amyloid P component (SAP) [3]	Blebbing response of human keratinocytes (induced or not) [2]	Keratins (K5 and K14) in blebs [4]	Sensitizing potential, collective analysis of the three blebbing endpoints [2]	also measured
O=[N+]([O-])c1ccc(Cl)c([N+](=O)[O-])c1 [CDNB, 1-chloro 2,4 dinitrobenzene]	increased levels	500	++	provoke a blebbing response	increased levels				Time to blebbing ([2]; HEKn cells, inspected at 1.5, 2.5 and 24 h, tested at 0.5, 0.05 and 0.005 mM): 24 h; Sensitizing potential, collective analysis of the three blebbing endpoints ([2]; time to blebbing, concentration, amount of blebs combined): strong sensitizers
CCCCCCC(C=O)=Cc1ccccc1 [HCA, α-hexyl cinnamic aldehyde]						did not induce blebbing at the tested concentrations			
C=O [formaldehyde]						provoke a blebbing response			
O=CC=O [glyoxal]	increased levels	500	+	provoke a blebbing response	increased levels		contain K5 and K14; also recorded: contain keratins	moderate sensitizer	
Cc1c(C)n2c(CBr)c(C)c(=O)n2c1=O [mBBr, monobromobimane]	increased levels								Covalent modification of C54 of K5 (cysteine 54 (C54) of K5): modify C54 of K5; also recorded: modifies C54 of K5; Labeling of cells in the basal layer (human skin excerpts): cells in the basal layer are labeled
CCO/C=C1\N=C(c2ccccc2)OC1=O [oxazolone]	increased levels					provoke a blebbing response	contain K5 and K14; also recorded: contain keratins	extreme sensitizer	Amount of blebs [2]: +++; Time to blebbing [2]: 1.5 h
